Data as given in patent US20080161403A1, “1-(1,2 Diphenyl-Ethyl)-3-(2-Hydroxyethyl)-Thiourea Compounds For Combating Animal Pests” (priority 2005, published 2008).

System: Spodoptera eridania
Assay: Southern armyworm (Spodoptera eridania), 2nd instar larvae, on dipped lima bean foliage
Type: in vivo
Conditions: 300 ppm, at 5 days
Protocol: The active compounds were formulated • a. for testing the activity against Aphis gossypii, Myzus persicae, and Aphis fabae, as 50:50 acetone:water solutions amended with 100 ppm Kinetic® (surfactant), • b. for testing the activity against Spodoptera eridania as a 10.000 ppm solution in a mixture of 35% acetone and water, which was diluted with water, if needed.
After the experiments were completed, in each case the lowest concentration was determined at which the compound still caused an 75 to 100% inhibition or mortality in comparison with untreated controls (limit or minimal concentration).
Foliage of two Sieva lima beans plants at the first expanded true-leaf stage that are contained within a single 3.8 cm square plastic pot are dipped into the test solution with agitation for 3 seconds and allowed to dry in a hood. The pot is then placed in a 25.4 cm plastic zipper top bag and infested with ten 2nd instar caterpillars. At 5 days, observations are made of mortality, reduced feeding, or any interference with normal molting.

In the case of OCCNC(=S)NC(Cc1cccc(C(F)(F)F)c1)c1cc(Cl)ccc1Cl (stereo not shown) [Example 77], the “mortality in comparison with untreated controls” value is reported as “over 75%”.
